Residues, ends and D or L forms follow the SMILES beside them. *: point of attachment. Cbz = O=C(OCc1ccccc1)*; CH2F = FC*
Tested on: SQ-20B, BT-20, U373, HeLa and NCI-H520 cells
Test: CATI-1 induced apoptosis in presence of caspase inhibitor I (flow cytometry)
Type: cell-based, human
Settings: 50 μM caspase inhibitor I with 50 μM CATI-1, 24 hours; any cell line tested
Description: The percentages indicate the fraction of cells at an early stage of apoptosis (lower right quadrant), as measured by single MC540 fluorescence, and the fraction of cells at an advanced stage of apoptosis (upper right quadrant).
Quantitative flow cytometric apoptosis detection assays were performed on BT-20 (breast cancer), PC-3 (prostate cancer), U373 (glioblastoma), SQ20B (squamous cell carcinoma), HeLa (cervix cancer), and DU145 (prostate cancer). Just prior to the assay, one mg/ml stock solutions of MC540 (Sigma, St. Louis, Mo.) and PI (Sigma, St. Louis, Mo.) were filtered through a 0.22 μm filter and stored at 4° C. in the dark. […] Stained cells were analyzed with a FACStar Plus flow cytometer (Becton Dickinson, San Jose, Calif.) using the 488-nm excitation from an argon laser. […] In each experiment approximately 10,000 cells were analyzed by FACS and the percentage of cells at early (MC540 fluorescence only) and advanced (dual MC540 plus PI fluorescence) stages of apoptosis obtained.
Human cancer cell lines were treated with 50 μM CATI-1 in the presence and absence of 50 μM caspase inhibitor I (Z-Val-Ala-Asp(Ome)-CH2F) (Calbiochem, La Jolla, Calif.) for 24 hours to determine whether caspases were required for cathepsin inhibitor activity. […] Quantitative flow cytometric apoptosis detection assays were performed on treated cells as previously discussed in Example II.

COC(=O)C[C@H](NC(=O)[C@H](C)NC(=O)[C@@H](NC(=O)OCc1ccccc1)C(C)C)C(=O)CF [caspase inhibitor I, Z-Val-Ala-Asp(Ome)-CH2F] (Cbz-Val-Ala-Asp(OMe)-CH2F)
impact on CATI-1 induced apoptosis: no detectable impact

Reference: patent publication US6605589B1, “Cathepsin inhibitors in cancer treatment” (Parker Hughes Institute, priority 2000, dated 2003)
